Experimental data taken from patent US7026280B2, “LV V-Haemorphin-7 neuroactive peptide and methods of use” (Howard Florey Institute of Experimental Physiology, priority 1996, dated 2006).
Where two headings read alike, the source gives them in different places. Where a SMILES comes first, the peptide text is derived from it. Side-chain parts run from the residue outwards. [ ]: non-standard residue; d: D form. The star is where a group is joined. Nicotinoyl = O=C(c1cccnc1)*; Nle = CCCC[C@H](N)C(=O)O; Cbz = O=C(OCc1ccccc1)*

Experiments:
[1] = molecular target: T1, AT4 receptor (Ovis aries, UniProt A0ACI6PQ17); experiment: Competition for [125I]LVV-haemorphin-7 binding to sheep cerebellar cortical membranes; details: read-out: IC50 for competing for 125I-LVV-haemorphin-7 binding
T1 sequence (A0ACI6PQ17 1-1050): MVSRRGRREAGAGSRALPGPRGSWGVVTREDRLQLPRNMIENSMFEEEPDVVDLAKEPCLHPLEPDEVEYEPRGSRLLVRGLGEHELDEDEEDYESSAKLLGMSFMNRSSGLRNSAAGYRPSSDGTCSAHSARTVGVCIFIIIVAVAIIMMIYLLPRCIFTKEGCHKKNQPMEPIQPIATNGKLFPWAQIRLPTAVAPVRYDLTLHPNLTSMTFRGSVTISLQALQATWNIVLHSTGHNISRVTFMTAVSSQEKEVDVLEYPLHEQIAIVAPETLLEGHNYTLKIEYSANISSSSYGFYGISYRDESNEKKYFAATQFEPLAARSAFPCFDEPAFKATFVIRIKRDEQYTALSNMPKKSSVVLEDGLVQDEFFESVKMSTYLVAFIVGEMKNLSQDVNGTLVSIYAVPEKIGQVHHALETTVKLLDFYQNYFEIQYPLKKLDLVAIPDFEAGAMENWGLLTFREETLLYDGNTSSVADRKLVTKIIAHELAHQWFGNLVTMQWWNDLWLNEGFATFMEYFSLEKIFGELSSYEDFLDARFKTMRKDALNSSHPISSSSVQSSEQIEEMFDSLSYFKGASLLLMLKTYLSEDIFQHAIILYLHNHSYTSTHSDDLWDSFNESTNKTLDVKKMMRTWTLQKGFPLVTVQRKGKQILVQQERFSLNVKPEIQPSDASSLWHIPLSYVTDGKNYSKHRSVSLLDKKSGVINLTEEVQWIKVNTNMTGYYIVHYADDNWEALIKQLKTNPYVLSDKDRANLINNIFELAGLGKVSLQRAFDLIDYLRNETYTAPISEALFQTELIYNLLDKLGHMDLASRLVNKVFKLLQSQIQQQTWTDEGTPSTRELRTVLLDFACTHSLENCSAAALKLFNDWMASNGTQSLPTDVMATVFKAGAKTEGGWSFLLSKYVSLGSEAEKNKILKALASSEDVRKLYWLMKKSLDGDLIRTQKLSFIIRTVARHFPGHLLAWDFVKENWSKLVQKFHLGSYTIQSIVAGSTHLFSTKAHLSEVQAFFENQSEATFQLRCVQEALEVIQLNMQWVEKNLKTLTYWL

[2] = molecular target: T1, AT4 receptor; experiment: Competition for [125I]Ang IV binding to sheep cerebellar cortical membranes
[3] = system: AT4 receptor sites; experiment: Cross-displacement of [125I]LVV-haemorphin-7 and [125I]Ang IV binding on sheep hindbrain sections
Protocol: Sheep hindbrain sections were used to compare the distribution of ^125I-LVV-haemorphin-7 binding and AT4 receptor sites. Sections at 10 μm thickness were equilibrated to 22° C. (30 min), and then preincubated for 30 min in an isotonic buffer containing 50 mM Tris, 150 mM sodium chloride, 5 mM EDTA, 100 μM phenylmethylsulfonyl fluoride, 20 μM bestatin and 0.1% bovine serum albumin, pH 7.4, before a further 2 h incubation in the same buffer containing 2.84 μCi of [^125I]LVV-haemorphin-7 or [125I]Ang IV (approximately 140 pM). The binding of the radioligands was cross-displaced with either 1 μM unlabelled LVV-haemorphin-7 or Ang IV. After incubation, the sections were given three 2 min washes in buffer at 4° C., and exposed to X-ray film for 14 to 28 d.

[4] = system: scopolamine-induced amnesia; details: rat, in vivo
[5] = system: scopolamine-induced amnesia
[6] = molecular target: AT4 receptor; experiment: Competition for [125I]Ang IV binding on prefrontal cortical brain sections (in vitro receptor autoradiography); design: species or system Macaca fascicularis; details: for IC50: monkey prefrontal cortical sections, read-out: IC50 for competing for [125I]Ang IV binding; for Competition for [125I]Ang IV binding: even at concentrations of 10 mM
[7] = system: embryonic chicken sympathetic neurons
[8] = molecular target: T2, embryonic chicken Ang IV binding site (AT4 receptor) (Gallus gallus, UniProt F1NNE7); experiment: Competition for [125I]Ang IV binding to E13 chicken chorioallantoic membranes; details: for Concentration at which only 50% of the [125I]Ang IV sites were competed for: E13 chicken CAM, only 50% of the sites
T2 sequence (F1NNE7 1-1024): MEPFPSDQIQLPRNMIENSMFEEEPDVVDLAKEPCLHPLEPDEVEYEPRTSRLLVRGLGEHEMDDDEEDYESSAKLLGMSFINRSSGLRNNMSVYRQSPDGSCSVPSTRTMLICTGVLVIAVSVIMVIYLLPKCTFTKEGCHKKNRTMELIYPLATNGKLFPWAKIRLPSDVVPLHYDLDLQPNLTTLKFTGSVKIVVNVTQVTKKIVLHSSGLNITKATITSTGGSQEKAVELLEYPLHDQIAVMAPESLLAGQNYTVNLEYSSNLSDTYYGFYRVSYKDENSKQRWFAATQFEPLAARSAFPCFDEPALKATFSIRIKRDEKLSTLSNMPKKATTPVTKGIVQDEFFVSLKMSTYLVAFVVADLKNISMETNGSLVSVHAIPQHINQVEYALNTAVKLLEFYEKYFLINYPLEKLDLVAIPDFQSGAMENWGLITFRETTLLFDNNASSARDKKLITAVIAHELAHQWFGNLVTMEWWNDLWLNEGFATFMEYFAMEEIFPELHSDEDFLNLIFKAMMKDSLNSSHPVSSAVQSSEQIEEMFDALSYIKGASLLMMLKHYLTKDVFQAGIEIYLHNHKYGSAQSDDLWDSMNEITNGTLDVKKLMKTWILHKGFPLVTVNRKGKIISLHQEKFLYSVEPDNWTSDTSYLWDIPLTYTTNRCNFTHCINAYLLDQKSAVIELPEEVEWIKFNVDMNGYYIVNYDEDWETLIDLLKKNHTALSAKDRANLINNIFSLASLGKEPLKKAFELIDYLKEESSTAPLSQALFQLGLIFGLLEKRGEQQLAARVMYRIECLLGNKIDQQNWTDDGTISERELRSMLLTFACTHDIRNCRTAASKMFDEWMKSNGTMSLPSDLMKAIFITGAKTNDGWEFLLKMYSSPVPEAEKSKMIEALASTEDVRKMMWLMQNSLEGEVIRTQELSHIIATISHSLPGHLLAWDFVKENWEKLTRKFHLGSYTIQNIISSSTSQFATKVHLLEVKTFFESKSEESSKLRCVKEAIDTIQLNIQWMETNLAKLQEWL

[9] = molecular target: Ang IV binding site (AT4 receptor) (Homo sapiens, UniProt Q9UIQ6); details: literature; cited from earlier work
Ang IV binding site (AT4 receptor), sequence (Q9UIQ6 whole entry): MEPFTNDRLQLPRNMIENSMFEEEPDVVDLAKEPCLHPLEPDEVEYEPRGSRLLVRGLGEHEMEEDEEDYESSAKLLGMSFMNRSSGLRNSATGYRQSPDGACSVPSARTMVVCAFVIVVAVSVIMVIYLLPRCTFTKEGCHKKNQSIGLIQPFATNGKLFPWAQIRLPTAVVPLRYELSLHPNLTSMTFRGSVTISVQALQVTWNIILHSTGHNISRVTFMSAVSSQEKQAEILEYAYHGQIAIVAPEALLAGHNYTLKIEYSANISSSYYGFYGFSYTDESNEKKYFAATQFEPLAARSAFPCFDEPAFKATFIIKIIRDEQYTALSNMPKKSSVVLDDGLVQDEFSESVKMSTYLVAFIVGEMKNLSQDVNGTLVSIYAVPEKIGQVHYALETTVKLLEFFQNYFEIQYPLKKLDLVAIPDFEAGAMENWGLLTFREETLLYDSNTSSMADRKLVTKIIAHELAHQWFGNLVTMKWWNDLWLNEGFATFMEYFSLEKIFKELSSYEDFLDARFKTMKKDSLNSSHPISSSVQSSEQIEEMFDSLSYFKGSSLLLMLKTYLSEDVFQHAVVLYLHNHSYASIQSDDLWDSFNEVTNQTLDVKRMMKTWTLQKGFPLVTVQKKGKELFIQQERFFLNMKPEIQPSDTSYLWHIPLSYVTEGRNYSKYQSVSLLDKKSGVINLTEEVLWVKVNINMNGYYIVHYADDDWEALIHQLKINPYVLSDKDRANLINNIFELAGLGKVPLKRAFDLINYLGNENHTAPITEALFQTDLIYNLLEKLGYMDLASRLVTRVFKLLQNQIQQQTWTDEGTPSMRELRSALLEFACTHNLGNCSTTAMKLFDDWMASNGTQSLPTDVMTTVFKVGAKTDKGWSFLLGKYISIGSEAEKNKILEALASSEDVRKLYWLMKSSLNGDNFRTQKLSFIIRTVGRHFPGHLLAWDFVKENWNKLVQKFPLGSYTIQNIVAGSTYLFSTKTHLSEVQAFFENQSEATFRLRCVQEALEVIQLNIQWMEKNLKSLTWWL

[10] = system: AT4 receptor; details: literature; mediated via the AT4 receptor; cited from earlier work
[11] = 10^−8 M Ang II, test substance 1 μM
[12] = 10^−8 M Ang IV, test substance 1 μM

Q: What does the source list for LVVYPWTQRF [LVV-haemorphin-7]?
A: IC50 [1]: 0.0056 µM; IC50 ([2]; read-out: IC50 for competing for [125I]Ang IV binding): 0.002 µM; Displacement of [125I]LVV-haemorphin-7 and [125I]Ang IV binding [3]: displaced; Effect on scopolamine-induced latency in finding the platform [4]: totally reversed; Effect on scopolamine-induced amnesia (latency to enter dark compartment) ([5]; 70 nmol scopolamine followed by 1.0 nmol peptide, intracerebroventricularly): completely reversed; Passive avoidance performance, substance alone ([5]; saline followed by 1.0 nmol, intracerebroventricularly): performed worse than the scopolamine-treated rats

Q: For `CC[C@H](C)[C@H](NC(=O)[C@H](Cc1ccc(O)cc1)NC(=O)[C@@H](NC(=O)[C@H](CCCNC(=N)N)NC(=O)[C@@H](N)CC(=O)O)C(C)C)C(=O)N[C@@H](Cc1c[nH]cn1)C(=O)N1CCC[C@H]1C(=O)N[C@@H](Cc1ccccc1)C(=O)O` [Ang II], which IC50 [6] is on record?
A: Its IC50 is 0.73 µM.

Q: And the “Inhibition of neurite outgrowth” value [7]?
A: The value was 25%.

Q: With `CC[C@H](C)[C@H](NC(=O)[C@@H]1CCCN1C(=O)[C@H](Cc1c[nH]cn1)NC(=O)[C@@H](NC(=O)[C@H](Cc1ccc(O)cc1)NC(=O)[C@@H](NC(=O)[C@H](CCCNC(=N)N)NC(=O)CNC)C(C)C)[C@@H](C)CC)C(=O)O` [[Sar^1Ile^8]Ang II] as the molecule, how does the “Concentration at which only 50% of the [125I]Ang IV sites were competed for” value [8] read?
A: The value was 10 µM.

Q: And the “Effect on the inhibition of neurite outgrowth by Ang II” value (“Effect on the inhibition … by Ang II” for short) [7]?
A: The value was “ineffective”.

Q: What about the “Effect on the inhibition of neurite outgrowth by Ang IV” value (shortened to “Effect on the inhibition … by Ang IV”) [7] of the same molecule?
A: Its value is “no effect”.

Q: What about the “Affinity of the Ang IV site for the ligand” value [9] of the same molecule?
A: The value was “low to very low affinity”.

Q: What does the source list for `CN1[C@@H]2C[C@@H](OC(=O)[C@H](CO)c3ccccc3)C[C@H]1[C@@H]1O[C@@H]12` [scopolamine]?
A: Latency in finding the platform after amnesic agent [4]: significantly increased latencies; Passive avoidance performance after amnesic agent ([5]; 70 nmol intracerebroventricularly followed by saline): learning and memory deficits

Q: Which “Competition for [125I]Ang IV binding” value [6] does the source give for `CCCCc1nc(Cl)c(CO)n1Cc1ccc(-c2ccccc2-c2nn[nH]n2)cc1` [losartan] here?
A: Its value is “inactive”.

Q: What about the “Effect on the inhibition … by Ang II” value [7, 11] of the same molecule?
A: Its value is “ineffective”.

Q: And the “Effect on the inhibition … by Ang IV” value [7, 12]?
A: The value was “no effect”.

Q: What about the “Affinity of the Ang IV site for the ligand” value [9] of the same molecule?
A: Its value is “low to very low affinity”.

Q: Which IC50 [6] does the source give for `CC[C@H](C)[C@H](NC(=O)[C@H](Cc1ccc(O)cc1)NC(=O)[C@@H](NC(=O)[C@@H](N)CCCNC(=N)N)C(C)C)C(=O)N[C@@H](Cc1c[nH]cn1)C(=O)N1CCC[C@H]1C(=O)N[C@@H](Cc1ccccc1)C(=O)O` [Ang III] here?
A: Its IC50 is 0.08 µM.

Q: With `CC[C@H](C)[C@H](NC(=O)[C@@H]1CCCN1C(=O)[C@H](Cc1c[nH]cn1)NC(=O)[C@H](CCCCNC(=O)[C@H](CCCNC(=N)N)NC(=O)OCc1ccccc1)NC(=O)[C@H](Cc1ccc(O)cc1)NC(=O)c1cccnc1)C(=O)O` [CGP 42112] (Nicotinoyl-YK([Arg-Cbz])HPI-OH; N-terminus and C-terminus assumed) as the molecule, how does the “Concentration at which only 50% of the [125I]Ang IV sites were competed for” value [8] read?
A: The value was 0.5 µM.

Q: What about the “Effect on the inhibition … by Ang II” value [7] of the same molecule?
A: Its value is “ineffective”.

Q: And the “Effect on the inhibition … by Ang IV” value [7]?
A: Its value is “no effect”.

Q: What does the source list for `CC[C@H](C)[C@H](NC(=O)[C@H](Cc1ccc(O)cc1)NC(=O)[C@@H](N)C(C)C)C(=O)N[C@@H](Cc1cnc[nH]1)C(=O)N1CCC[C@H]1C(=O)N[C@@H](Cc1ccccc1)C(=O)O` [Ang IV, NH2-Val Tyr Ile His Pro Phe-COOH]?
A: Displacement of [125I]LVV-haemorphin-7 and [125I]Ang IV binding ([3]; 1 μM unlabelled ligand, sheep hindbrain sections): displaced; Concentration of maximal effect on neurite outgrowth [7]: 10^−9 M; Threshold concentration for inhibition of neurite outgrowth [7]: 10^−11 M; IC50 ([7]; read-out: Half maximal inhibition of neurite outgrowth): 0.0001 µM; Effect on memory in a passive avoidance task [10]: improve memory retention and retrieval

Q: Which results are given for `Cc1cc(Cn2cnc3c2C[C@@H](C(=O)O)N(C(=O)C(c2ccccc2)c2ccccc2)C3)ccc1N(C)C` [PD 123319]?
A: Competition for [125I]Ang IV binding [6]: inactive; Inhibition of [125I]Ang IV binding ([8]; at concentrations up to 10 μM): inactive; IC50 ([1]; sheep cerebellar cortical membranes): 46 µM; Competition for [125I]Ang IV binding ([2]; at 10 μM): inactive; Effect on the inhibition of neurite outgrowth by Ang II [7, 11]: ineffective; Effect on the inhibition of neurite outgrowth by Ang IV [7, 12]: no effect; Affinity of the Ang IV site for the ligand [9]: low to very low affinity

Q: For `CCCC[C@H](N)C(=O)N[C@@H](Cc1ccc(O)cc1)C(=O)N[C@H](C(N)=O)[C@@H](C)CC` [Nle^1-Y-I-amide] (H-[Nle]-Tyr-Ile-NH2; N-terminus assumed), which “Effect on the inhibition … by Ang IV” value [7] is on record?
A: The value was “totally reversed”.
